Test results: patent US10028956B2, “Methods of treating various cancers using an AXL/cMET inhibitor in combination with other agents” (Ignyta, Inc., priority 2013, dated 2018)
pIC50: −log10 of the molar value. Marks after values point to notes of the source that are not given here.

Assays:
[1] = tested on: CTG-0170 erlotinib-insensitive primary NSCLC human TumorGraft; assay: NSCLC TumorGraft model CTG-0170; type: in vivo, mice; details: for % Tumor Growth Inhibition: CTG-0170, 10 days
Procedure: Methods (for the experiments shown in FIGS. 10 and 11) • Female immunocompromised nu/nu mice (Harlan) between 6-9 weeks of age were housed on irradiated papertwist-enriched ⅛″ corncob bedding (Sheperd) in individual HEPA ventilated cages (Innocage® IVC, Innovive USA) on a 12-hour light-dark cycle at 68-74° F. (20-23° C.) and 30-70% humidity. Animals were fed water ad libitum (reverse osmosis, 2 ppm Cl2) and an irradiated Test rodent diet (Teklad 2919) consisting of 19% protein, 9% fat, and 4% fiber. • Tumor Models: Champions TumorGraft models of NSCLC are owned by Champions Oncology. In this study, animals were implanted unilaterally on the right flank with tumor fragments harvested from host animals. […] Erlotinib (manufacturer: OSI Pharmaceuticals; National Drug Code: 50242-062-01; Lot #: US0002) was formulated using 100% PEG-400 as the vehicle according to manufacturer's specifications.
Efficacy measurements: Beginning Day 0, tumor dimensions were measured twice weekly by digital caliper (Fowler Ultra-Cal IV) and data including individual and mean estimated tumor volumes (Mean TV±SEM) were recorded for each group; tumor volume was calculated using the formula TV=width^2×length×0.52. At study completion, percent tumor growth inhibition (% TGI) values were calculated and reported for each treatment group (T) versus control (C) using initial (i) and final (f) tumor measurements by the formula: % TGI=1−Tf−Ti/Cf−C; single agent or combination therapies resulting in a TGI>50 at study completion are considered active in the tested model at the evaluated treatment regimen according to NCI guidelines. Individual mice reporting a tumor volume ≤50% of the Day 0 measurement for two consecutive measurements over a seven day period were considered partial responders (PR). If the PR persisted until study completion, percent tumor regression (% TR) was determined using the formula: % TR=1−Tf/Ti×100; a mean value was calculated if multiple PR mice occurred in one group. Individual mice lacking palpable tumors (<4×4 mm^2 for two consecutive measurements over a seven day period) were classified as complete responders (CR); a CR that persisted until study completion was considered a tumor-free survivor (TFS). TFS animals are excluded from efficacy calculations. Statistical differences in tumor volume were determined using a two-tailed One-Way Analysis of Variance (ANOVA) followed by the Dunett's multiple comparisons test comparing treated groups with control and combinations with standard agent alone when possible. All data collected in this study was managed electronically and stored on a redundant server system.

AXL = target: T1, AXL (Homo sapiens, UniProt P30530); assay: Cellular AXL inhibition in AXL-transfected 293GT cells; type: cell-based
T1 sequence (P30530 26-894): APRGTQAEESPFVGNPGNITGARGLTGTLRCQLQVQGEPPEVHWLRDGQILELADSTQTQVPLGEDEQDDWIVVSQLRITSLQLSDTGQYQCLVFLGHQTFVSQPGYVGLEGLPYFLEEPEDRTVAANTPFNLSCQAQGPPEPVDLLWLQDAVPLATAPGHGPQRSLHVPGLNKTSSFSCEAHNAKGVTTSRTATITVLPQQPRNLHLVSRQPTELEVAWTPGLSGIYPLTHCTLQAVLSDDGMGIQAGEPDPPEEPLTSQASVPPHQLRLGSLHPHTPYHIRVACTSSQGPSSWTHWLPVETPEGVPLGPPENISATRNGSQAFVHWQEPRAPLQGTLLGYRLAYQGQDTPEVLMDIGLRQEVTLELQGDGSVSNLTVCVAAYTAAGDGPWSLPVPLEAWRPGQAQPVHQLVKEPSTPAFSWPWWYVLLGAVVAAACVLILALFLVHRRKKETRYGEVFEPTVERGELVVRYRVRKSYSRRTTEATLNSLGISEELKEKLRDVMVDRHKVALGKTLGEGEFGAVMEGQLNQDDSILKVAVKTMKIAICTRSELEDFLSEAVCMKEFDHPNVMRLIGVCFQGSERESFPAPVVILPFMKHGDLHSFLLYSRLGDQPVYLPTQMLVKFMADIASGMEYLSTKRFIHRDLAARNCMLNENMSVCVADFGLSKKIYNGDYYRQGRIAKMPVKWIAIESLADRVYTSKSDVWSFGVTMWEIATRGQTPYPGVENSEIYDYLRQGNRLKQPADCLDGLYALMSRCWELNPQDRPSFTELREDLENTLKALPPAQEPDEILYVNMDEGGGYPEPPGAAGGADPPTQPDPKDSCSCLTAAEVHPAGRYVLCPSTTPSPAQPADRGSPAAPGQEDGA

298 kinases = assay: Kinome selectivity against 298 kinases; type: biochemical
c-Met [2] = target: T2, c-Met (Homo sapiens, UniProt P08581); assay: Dissociation from c-Met, LanthaScreen Eu-kinase binding assay
Procedure: Assay buffer was prepared as for association, and used for all dilutions. A 5-μL aliquot of 80 nM LanthaScreen Eu-anti-GST antibody:20 nM GST-tagged enzyme mix was added to the Greiner low volume white 384-well plate, with antibody only added to control wells. Compound (100 nL) in DMSO was added by pintool at 2000-fold over the final assay concentration. DMSO was added to no inhibitor control wells. After a one-hour incubation at ambient temperature to allow formation of the enzyme-inhibitor complex, 2 μL of the reaction mix was transferred to a 384 Optiplate (PerkinElmer) and 78 μL of kinase tracer 236 was added. The final tracer concentration was 100 nM for AXL and 200 nM for c-Met. Readings were immediately initiated and total of 60 time points were taken at 2-min intervals, at 25° C. or 37° C. The background subtracted ratio was normalized to the no inhibitor control to calculate the % tracer bound, which was plotted with respect to time. The data was fitted to the one phase association model in GraphPad Prism (La Jolla Calif.).

c-Met [3] = target: T2, c-Met; assay: Cellular c-Met inhibition in GTL-16 cells; type: cell-based; parameters: endogenous in cells; host or cells: GTL-16 human gastric carcinoma cells

T2 sequence (P08581 25-1390): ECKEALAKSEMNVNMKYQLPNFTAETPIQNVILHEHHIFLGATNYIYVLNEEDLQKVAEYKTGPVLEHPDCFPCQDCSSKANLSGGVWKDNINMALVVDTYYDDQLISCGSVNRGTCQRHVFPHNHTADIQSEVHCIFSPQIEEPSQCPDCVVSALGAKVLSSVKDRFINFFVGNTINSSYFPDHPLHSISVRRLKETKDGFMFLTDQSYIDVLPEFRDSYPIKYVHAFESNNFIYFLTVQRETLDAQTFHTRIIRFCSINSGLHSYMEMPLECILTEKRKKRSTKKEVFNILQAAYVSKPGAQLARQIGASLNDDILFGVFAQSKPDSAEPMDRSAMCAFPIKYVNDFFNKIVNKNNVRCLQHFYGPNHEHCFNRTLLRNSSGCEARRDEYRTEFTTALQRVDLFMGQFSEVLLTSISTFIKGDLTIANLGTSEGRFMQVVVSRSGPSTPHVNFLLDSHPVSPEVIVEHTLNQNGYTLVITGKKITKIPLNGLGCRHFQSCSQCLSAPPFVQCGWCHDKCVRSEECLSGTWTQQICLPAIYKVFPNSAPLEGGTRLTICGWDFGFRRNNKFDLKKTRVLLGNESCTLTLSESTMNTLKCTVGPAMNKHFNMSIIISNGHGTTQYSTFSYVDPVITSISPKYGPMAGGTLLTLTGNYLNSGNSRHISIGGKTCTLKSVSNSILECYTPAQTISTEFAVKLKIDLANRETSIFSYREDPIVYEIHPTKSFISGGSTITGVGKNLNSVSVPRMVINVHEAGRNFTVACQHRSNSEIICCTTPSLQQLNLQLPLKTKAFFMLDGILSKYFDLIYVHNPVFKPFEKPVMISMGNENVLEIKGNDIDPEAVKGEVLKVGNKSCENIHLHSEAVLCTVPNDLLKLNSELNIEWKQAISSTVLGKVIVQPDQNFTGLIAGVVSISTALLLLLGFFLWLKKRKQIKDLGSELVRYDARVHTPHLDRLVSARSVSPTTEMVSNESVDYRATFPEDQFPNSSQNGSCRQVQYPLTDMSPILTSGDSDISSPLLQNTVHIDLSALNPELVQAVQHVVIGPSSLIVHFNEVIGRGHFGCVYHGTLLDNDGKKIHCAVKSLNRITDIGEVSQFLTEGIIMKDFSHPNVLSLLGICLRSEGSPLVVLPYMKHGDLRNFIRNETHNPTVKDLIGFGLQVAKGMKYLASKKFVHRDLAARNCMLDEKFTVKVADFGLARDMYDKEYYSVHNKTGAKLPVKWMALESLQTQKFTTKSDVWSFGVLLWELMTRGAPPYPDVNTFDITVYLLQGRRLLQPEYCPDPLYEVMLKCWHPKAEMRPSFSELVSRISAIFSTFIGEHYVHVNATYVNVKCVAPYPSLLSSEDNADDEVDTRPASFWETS

Compound: COc1cc2nccc(Oc3ccc(NC(=O)c4cn(C(C)C)c(=O)n(-c5ccc(F)cc5)c4=O)cc3F)c2cc1OC [CEP-40783, 3-(4-Fluorophenyl)-1-isopropyl-2,4-dioxo-1,2,3,4-tetrahydropyrimidine-5-carboxylic acid [4-(6,7-dimethoxyquinolin-4-yloxy)-3-fluorophenyl]-amide]
- % Tumor Growth Inhibition ([1]; 10 mg/kg po/qd): 104%*†
- % Tumor Growth Inhibition ([1]; 30 mg/kg po/qd): 107%*†
- efficacy in erlotinib-insensitive TumorGraft ([1]; CTG-0170, oral 10 mg/kg and 30 mg/kg): tumor regressions
- pIC50 (AXL): 9.59
- S90 (fraction of kinases showing >90% inhibition at 1 μM) (298 kinases): 0.04
- off-rate from c-Met (c-Met [2]; 25° C.): very slow
- dissociation rate from c-Met at higher temperature (c-Met [2]; 37° C. versus 25° C.): slightly enhanced
- pIC50 (c-Met [3]): 8.22
